Patent publication US9265253B2, “Use of macrocyclic picolinamides as fungicides” (DOW AGROSCIENCES LLC, priority 2013, dated 2016)

Tested on: not given
Test: not given
Conditions: not given

| Structure (SMILES) | melting point |
| --- | --- |
| COCN(C(=O)OC(C)(C)C)[C@H]1CCC[C@H](CCC(C)C)[C@@H](OCCCC(F)(F)F)[C@H](C)OC1=O [Compound F203] | 87 to 89 °C |
| Cc1ccc(C[C@H]2CCC[C@H](NC(=O)OC(C)(C)C)C(=O)O[C@@H](C)[C@@H]2OCC2CC2)cc1 [Compound F236] | 86 to 89 °C |
| COCN(C(=O)OC(C)(C)C)[C@H]1CCC[C@H](Cc2ccc(F)cc2F)[C@@H](OCc2ccccc2)[C@H](C)OC1=O [Compound F254] | 108 to 115 °C |

Tested on: Mycosphaerella graminicola; Anamorph: Septoria tritici
Test: Leaf Blotch of Wheat (SEPTTR) disease control
Format: in vivo
Conditions: Zymoseptoria tritici, 24 h, 1 Day Protectant, rate 100 ppm; read-out: SEPTTR 1 DP disease control
How it was run: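 Percent disease control is derived from Septoria tritici leaf blotch severity (0 to 100 percent) on treated versus untreated wheat seedlings. Plants get fungicide spray to run-off, with inoculation either preceding or following application, then humid incubation at 20° C.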

| Structure (SMILES) | pest or weed control at 100 ppm |
| --- | --- |
| C=CCO[C@@H]1[C@@H](Cc2ccc(F)cc2)CCC[C@H](NC(=O)c2nccc(OC)c2OCOC(=O)COCC)C(=O)O[C@H]1C [Compound F166] | 80 to 100% |
| COc1ccnc(C(=O)N[C@H]2CCC[C@H](CCC(C)C)[C@@H](OCCCC(F)(F)F)[C@H](C)OC2=O)c1OCOC(C)=O [Compound F93] | 80 to 100% |

Same assay, conditions: Zymoseptoria tritici, 24 h, 1 Day Protectant, rate 121.5 g/H; read-out: SEPTTR 1 DP disease control

| Structure (SMILES) | pest or weed control at 121.5 g/ha |
| --- | --- |
| C=CCO[C@@H]1[C@@H](Cc2ccc(F)cc2)CCC[C@H](NC(=O)c2nccc(OC)c2OCOC(=O)COCC)C(=O)O[C@H]1C [Compound F166] | 80 to 100% |
| COc1ccnc(C(=O)N[C@H]2CCC[C@H](CCC(C)C)[C@@H](OCCCC(F)(F)F)[C@H](C)OC2=O)c1OCOC(C)=O [Compound F93] | 80 to 100% |

Same assay, conditions: Zymoseptoria tritici, 72 h, 3 Day Curative, rate 100 ppm; read-out: SEPTTR 3 DC disease control

| Structure (SMILES) | pest or weed control at 100 ppm |
| --- | --- |
| C=CCO[C@@H]1[C@@H](Cc2ccc(F)cc2)CCC[C@H](NC(=O)c2nccc(OC)c2OCOC(=O)COCC)C(=O)O[C@H]1C [Compound F166] | 80 to 100% |
| COc1ccnc(C(=O)N[C@H]2CCC[C@H](CCC(C)C)[C@@H](OCCCC(F)(F)F)[C@H](C)OC2=O)c1OCOC(C)=O [Compound F93] | 80 to 100% |

Same assay, conditions: Zymoseptoria tritici, 72 h, 3 Day Curative, rate 121.5 g/H; read-out: SEPTTR 3 DC disease control

| Structure (SMILES) | pest or weed control at 121.5 g/ha |
| --- | --- |
| C=CCO[C@@H]1[C@@H](Cc2ccc(F)cc2)CCC[C@H](NC(=O)c2nccc(OC)c2OCOC(=O)COCC)C(=O)O[C@H]1C [Compound F166] | 80 to 100% |
| COc1ccnc(C(=O)N[C@H]2CCC[C@H](CCC(C)C)[C@@H](OCCCC(F)(F)F)[C@H](C)OC2=O)c1OCOC(C)=O [Compound F93] | 80 to 100% |

Tested on: Phakopsora pachyrhizi
Test: Asian Soybean Rust (PHAKPA) disease control
Format: in vivo
Conditions: Phakopsora pachyrhizi, topical, 24 h, 1 Day Protectant, read-out: Disease Control PHAKPA 1DP
Procedure: Technical grades of materials were dissolved in acetone, which were then mixed with nine volumes of water containing 0.011% Tween 20. The fungicide solutions were applied onto soybean seedlings using an automated booth sprayer to run-off. All sprayed plants were allowed to air dry prior to further handling.
Soybean plants (variety Williams 82) were grown in soil-less Metro mix, with one plant per pot. Two weeks old seedlings were used for testing. Plants were inoculated either 3 days prior to or 1 day after fungicide treatments. Plants were incubated for 24 h in a dark dew room at 22° C. and 100% RH then transferred to a growth room at 23° C. for disease to develop. Disease severity was assessed on the sprayed leaves.

| Structure (SMILES) | pest or weed control at 25 ppm |
| --- | --- |
| C=CCO[C@@H]1[C@@H](Cc2ccc(F)cc2)CCC[C@H](NC(=O)c2nccc(OC)c2OCOC(=O)COCC)C(=O)O[C@H]1C [Compound F166] | 80 to 100% |
| COc1ccnc(C(=O)N[C@H]2CCC[C@H](CCC(C)C)[C@@H](OCCCC(F)(F)F)[C@H](C)OC2=O)c1OCOC(C)=O [Compound F93] | 80 to 100% |

Same assay, conditions: Phakopsora pachyrhizi, topical, 72 h, 3 Day Curative, read-out: Disease Control PHAKPA 3DC

| Structure (SMILES) | pest or weed control at 25 ppm |
| --- | --- |
| C=CCO[C@@H]1[C@@H](Cc2ccc(F)cc2)CCC[C@H](NC(=O)c2nccc(OC)c2OCOC(=O)COCC)C(=O)O[C@H]1C [Compound F166] | 0 to 80% |
| COc1ccnc(C(=O)N[C@H]2CCC[C@H](CCC(C)C)[C@@H](OCCCC(F)(F)F)[C@H](C)OC2=O)c1OCOC(C)=O [Compound F93] | 0 to 80% |

Tested on: Puccinia triticina; Synonym: Puccinia recondite f. Sp. Tritici
Test: Wheat Brown Rust (PUCCRT) disease control
Format: in vivo
Conditions: Puccinia triticina, topical, 24 h, 1 Day Protectant, rate 100 ppm; read-out: PUCCRT 1 DP disease control
How it was run: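 Brown rust on first-leaf Yuma wheat: spore inoculation before or after spray application (acetone/Triton X-100 solution, or EC with Trycol in track spray), overnight 100% RH at 22 °C, disease developed at 24 °C. Severity scored 0–100% and converted to percent control against untreated.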

| Structure (SMILES) | pest or weed control at 100 ppm |
| --- | --- |
| C=CCO[C@@H]1[C@@H](Cc2ccc(F)cc2)CCC[C@H](NC(=O)c2nccc(OC)c2OCOC(=O)COCC)C(=O)O[C@H]1C [Compound F166] | 80 to 100% |
| COc1ccnc(C(=O)N[C@H]2CCC[C@H](CCC(C)C)[C@@H](OCCCC(F)(F)F)[C@H](C)OC2=O)c1OCOC(C)=O [Compound F93] | 80 to 100% |

Same assay, conditions: Puccinia triticina, topical, 24 h, 1 Day Protectant, rate 121.5 g/H; read-out: PUCCRT 1 DP disease control

| Structure (SMILES) | pest or weed control at 121.5 g/ha |
| --- | --- |
| C=CCO[C@@H]1[C@@H](Cc2ccc(F)cc2)CCC[C@H](NC(=O)c2nccc(OC)c2OCOC(=O)COCC)C(=O)O[C@H]1C [Compound F166] | 80 to 100% |
| COc1ccnc(C(=O)N[C@H]2CCC[C@H](CCC(C)C)[C@@H](OCCCC(F)(F)F)[C@H](C)OC2=O)c1OCOC(C)=O [Compound F93] | 80 to 100% |

Same assay, conditions: Puccinia triticina, topical, 72 h, 3 Day Curative, rate 100 ppm; read-out: PUCCRT 3 DC disease control

| Structure (SMILES) | pest or weed control at 100 ppm |
| --- | --- |
| C=CCO[C@@H]1[C@@H](Cc2ccc(F)cc2)CCC[C@H](NC(=O)c2nccc(OC)c2OCOC(=O)COCC)C(=O)O[C@H]1C [Compound F166] | 80 to 100% |
| COc1ccnc(C(=O)N[C@H]2CCC[C@H](CCC(C)C)[C@@H](OCCCC(F)(F)F)[C@H](C)OC2=O)c1OCOC(C)=O [Compound F93] | 80 to 100% |

Same assay, conditions: Puccinia triticina, topical, 72 h, 3 Day Curative, rate 121.5 g/H; read-out: PUCCRT 3 DC disease control

| Structure (SMILES) | pest or weed control at 121.5 g/ha |
| --- | --- |
| C=CCO[C@@H]1[C@@H](Cc2ccc(F)cc2)CCC[C@H](NC(=O)c2nccc(OC)c2OCOC(=O)COCC)C(=O)O[C@H]1C [Compound F166] | 80 to 100% |
| COc1ccnc(C(=O)N[C@H]2CCC[C@H](CCC(C)C)[C@@H](OCCCC(F)(F)F)[C@H](C)OC2=O)c1OCOC(C)=O [Compound F93] | 0 to 80% |
